These results are taken from patent US11613538B2, “Method of inhibiting or reducing a viral infection” (PTC Therapeutics, Inc., priority 2009, dated 2023).

A short description of this data set: Plasma trough levels in patients having a variety of cancers. Format: in vivo, human. The note with it: combination therapy with Compound #10; in words.

As for `CC(=O)O[C@@]12CO[C@@H]1C[C@H](O)[C@@]1(C)C(=O)[C@H](O)C3=C(C)[C@@H](OC(=O)[C@H](O)[C@@H](NC(=O)OC(C)(C)C)c4ccccc4)C[C@@](O)([C@@H](OC(=O)c4ccccc4)[C@H]21)C3(C)C` [docetaxel], the “PK profile (FIG. 18)” value is reported as “consistent with historical data”.
